For orientation: EC50 means the concentration that produces a half-maximal response.

Read-outs that look alike come from different tables or passages of the source. Some results are limits rather than exact numbers.

One series concerns pLAI reporter virus. The series can be described thus: microbe, parasite or virus in culture. The class given is cell-based, HIV. The note with it: Human immunodeficiency virus 1, MT4, 72 h.
The next series has as its system HIV-1 (IIIB). The series can be described thus: microbe, parasite or virus in culture. The settings on record: Human immunodeficiency virus 1, IIIB, MT4, 120 h, read-out: MT4 EC50. The class given is cell-based.
A further series can be described thus: in vitro. The settings on record: human; for CC50 at 5 days: uninfected MT-4 cells.
The mark [1] stands for this setting: HIV-1 (IIIB) in MT-4 cells, 5 days incubation, Cell Titer Glo.

Procedure for HIV-1 (IIIB): Compounds were tested in a high-throughput 384-well assay format for their ability to inhibit the replication of HIV-1 (IIIB) in MT-4 cells. Compounds were serially diluted (1:3) in DMSO on 384-well polypropylene plates and further diluted 200-fold into complete RPMI media (10% FBS, 1% P/S) using the Biotek Micro Flow and Labcyte ECHO acoustic dispenser. Each plate contained up to 8 test compounds, with negative (No Drug Control) and 5 μM AZT positive controls. MT-4 cells were pre-infected with 10 μL of either RPMI (mock-infected) or a fresh 1:250 dilution of HIV-1 IIIB concentrated virus stock. Infected and uninfected MT-4 cells were further diluted in complete RPMI media and added to each plate using a Micro Flow dispenser. After 5 days incubation in a humidified and temperature controlled incubator (37° C.), Cell Titer Glo (Promega) was added to the assay plates and chemiluminescence read using an Envision plate-reader.

As for `COC[C@@H]1CO[C@@]2(CC[C@H](C)N3C[C@H]2n2cc(C(=O)NCc4c(F)cc(F)cc4F)c(=O)c(O)c2C3=O)O1` (single isomer, unassigned) [168 (peak 1)], the EC50 with pLAI reporter virus (read-out: RLUC 50% HS EC50) was found to be 2 nM; with pLAI reporter virus (read-out: RLUC CCM EC50), 0.4 nM; in the series with HIV-1 (IIIB) (setting [1]), 1.1 nM. This compound returned a CC50 at 5 days in “in vitro” of 28.9 µM.

Regarding `COC[C@@H]1CO[C@]2(CC[C@H](C)N3C[C@H]2n2cc(C(=O)NCc4c(F)cc(F)cc4F)c(=O)c(O)c2C3=O)O1` (single isomer, unassigned) [168 (peak 2)], the values for the EC50 with pLAI reporter virus (read-out: RLUC 50% HS EC50), in the series on pLAI reporter virus (read-out: RLUC CCM EC50) and in the series with HIV-1 (IIIB) (setting [1]) were 16.4 nM, 0.6 nM and 2 nM, respectively. The same compound yielded a CC50 at 5 days in the series “in vitro” of 37 µM.

For `C[C@H]1CC[C@@]2(OC[C@@H](Cc3ccccc3)O2)[C@H]2CN1C(=O)c1c(O)c(=O)c(C(=O)NCc3c(F)cc(F)cc3F)cn12` (single isomer, unassigned) [169 (peak 1)], the EC50 is 10 nM with pLAI reporter virus (read-out: RLUC 50% HS EC50), 1.4 nM in the series with pLAI reporter virus (read-out: RLUC CCM EC50) and 4.9 nM in the series with HIV-1 (IIIB) (setting [1]). In the series “in vitro”, this compound registered a CC50 at 5 days of 39 µM.

As for `C[C@H]1CC[C@]2(OC[C@@H](Cc3ccccc3)O2)[C@H]2CN1C(=O)c1c(O)c(=O)c(C(=O)NCc3c(F)cc(F)cc3F)cn12` (single isomer, unassigned) [169 (peak 2)], the concentration for a half-maximal effect (EC50) in the series with pLAI reporter virus (read-out: RLUC 50% HS EC50) turned out to be 4 nM; in the series on pLAI reporter virus (read-out: RLUC CCM EC50), 2 nM; in the series with HIV-1 (IIIB) (setting [1]) it was 4.3 nM. The compound further had a CC50 at 5 days in “in vitro” of 45.1 µM.

For `CO[C@H]1CS[C@]2(CC[C@H](C)N3C[C@H]2n2cc(C(=O)NCc4c(F)cc(F)cc4F)c(=O)c(O)c2C3=O)O1` (single isomer, unassigned) [170 (peak 1)], the EC50 with pLAI reporter virus (read-out: RLUC 50% HS EC50) was 5 nM; in the series on pLAI reporter virus (read-out: RLUC CCM EC50), 0.3 nM; with HIV-1 (IIIB) (setting [1]), 1.3 nM. The compound also showed a CC50 at 5 days in the series “in vitro” of 42 µM.

Regarding `CO[C@@H]1CS[C@]2(CC[C@H](C)N3C[C@H]2n2cc(C(=O)NCc4c(F)cc(F)cc4F)c(=O)c(O)c2C3=O)O1` (single isomer, unassigned) [170 (peak 2)], the results for the EC50 in the series with pLAI reporter virus (read-out: RLUC 50% HS EC50), in the series with pLAI reporter virus (read-out: RLUC CCM EC50) and with HIV-1 (IIIB) (setting [1]) were 2.6 nM, 0.2 nM and 1.7 nM, respectively. The compound also returned a CC50 at 5 days in “in vitro” of 42.6 µM.

Consider `CO[C@H]1CS[C@@]2(CC[C@H](C)N3C[C@H]2n2cc(C(=O)NCc4c(F)cc(F)cc4F)c(=O)c(O)c2C3=O)O1` (single isomer, unassigned) [170 (peak 3)], for which the concentration giving a half-maximal response (EC50) in the series with pLAI reporter virus (read-out: RLUC 50% HS EC50) is 43.4 nM; in the series on pLAI reporter virus (read-out: RLUC CCM EC50), 0.3 nM; in the series on HIV-1 (IIIB) (setting [1]), 1.2 nM. The CC50 at 5 days in “in vitro” was 8.24 µM.

For the compound `CO[C@@H]1CS[C@@]2(CC[C@H](C)N3C[C@H]2n2cc(C(=O)NCc4c(F)cc(F)cc4F)c(=O)c(O)c2C3=O)O1` (single isomer, unassigned) [170 (peak 4)], the EC50 with pLAI reporter virus (read-out: RLUC 50% HS EC50) was determined as 14.5 nM; in the series on pLAI reporter virus (read-out: RLUC CCM EC50), 0.3 nM; with HIV-1 (IIIB) (setting [1]), 1.7 nM. The CC50 at 5 days in the series “in vitro” was 33.1 µM.

Consider `CC1=NO[C@@]2(CC[C@H](C)N3C[C@H]2n2cc(C(=O)NCc4ccc(F)cc4F)c(=O)c(O)c2C3=O)[C@H]1F` (single isomer, unassigned) [Example 27 (peak 1)], for which the values for the EC50 with pLAI reporter virus (read-out: RLUC 50% HS EC50), in the series with pLAI reporter virus (read-out: RLUC CCM EC50) and in the series with HIV-1 (IIIB) (setting [1]) were 175 nM, 0.2 nM and 1.3 nM, respectively. This compound came in with a CC50 at 5 days in the series “in vitro” of 33.1 µM.

As to `CC1=NO[C@@]2(CC[C@H](C)N3C[C@H]2n2cc(C(=O)NCc4ccc(F)cc4F)c(=O)c(O)c2C3=O)[C@@H]1F` (single isomer, unassigned) [Example 27 (peak 2)], the EC50 worked out at 160 nM in the series with pLAI reporter virus (read-out: RLUC 50% HS EC50), 0.3 nM in the series on pLAI reporter virus (read-out: RLUC CCM EC50) and 0.6 nM in the series on HIV-1 (IIIB) (setting [1]). This compound also displayed a CC50 at 5 days in “in vitro” of 45.6 µM.

Turning to `C[C@H]1CC[C@]2(CC(=O)N(Cc3ccc(F)cc3)O2)[C@H]2CN1C(=O)c1c(O)c(=O)c(C(=O)NCc3c(F)cc(F)cc3F)cn12` (single isomer, unassigned) [Example 115], the EC50 was found to be 5.1 nM in the series on pLAI reporter virus (read-out: RLUC 50% HS EC50), 0.3 nM with pLAI reporter virus (read-out: RLUC CCM EC50) and 1.2 nM in the series on HIV-1 (IIIB) (setting [1]). This compound also returned a CC50 at 5 days in “in vitro” of at least 50 µM.

`CC1=NO[C@]2(CC[C@H](C)N3C[C@H]2n2cc(C(=O)NCc4ccc(F)cc4F)c(=O)c(O)c2C3=O)C1` [Example 2, (3′S,5R,7′R)—N-(2,4-difluorobenzyl)-12′-hydroxy-3,3′-dimethyl-1′,11′-dioxo-1′,4′,5′,11′-tetrahydro-3′H,4H,7′H-spiro[isoxazole-5,6′-[2,7]methanopyrido[1,2-a][1,4]diazonine]-10′-carboxamide]: the half-maximal effective concentration (EC50) is 9.2 nM with pLAI reporter virus (read-out: RLUC 50% HS EC50), 2.6 nM in the series with pLAI reporter virus (read-out: RLUC CCM EC50) and 11.2 nM in the series with HIV-1 (IIIB) (setting [1]). Moreover, the CC50 at 5 days in “in vitro” is at least 50 µM.

As for `CC1=NO[C@@]2(CC[C@H](C)N3C[C@H]2n2cc(C(=O)NCc4c(F)cc(F)cc4F)c(=O)c(O)c2C3=O)C1` [Example 3, (3′S,5S,7′R)-12′-hydroxy-3,3′-dimethyl-1′,11′-dioxo-N-(2,4,6-trifluorobenzyl)-1′,4′,5′,11′-tetrahydro-3′H,4H,7′H-spiro[isoxazole-5,6′-[2,7]methanopyrido[1,2-a][1,4]diazonine]-10′-carboxamide], the EC50 in the series on pLAI reporter virus (read-out: RLUC 50% HS EC50) was found to be 71.2 nM; in the series on pLAI reporter virus (read-out: RLUC CCM EC50), 0.2 nM; in the series on HIV-1 (IIIB) (setting [1]), 0.9 nM. The same compound yielded a CC50 at 5 days in the series “in vitro” of 20.1 µM.

Consider `COCC1=NO[C@@]2(CC[C@H](C)N3C[C@H]2n2cc(C(=O)NCc4ccc(F)cc4F)c(=O)c(O)c2C3=O)C1` [Example 22, (3′S,5S,7′R)—N-(2,4-difluorobenzyl)-12′-hydroxy-3-(methoxymethyl)-3′-methyl-1′,11′-dioxo-1′,4′,5′,11′-tetrahydro-3′H,4H,7′H-spiro[isoxazole-5,6′-[2,7]methanopyrido[1,2-a][1,4]diazonine]-10′-carboxamide], for which, in the series with HIV-1 (IIIB) (setting [1]), the 50% effective concentration (EC50) was 1.3 nM. This compound displayed a CC50 at 5 days in the series “in vitro” of 23.7 µM.

Take `C[C@H]1CC[C@]2(CNC(=O)C2)[C@H]2CN1C(=O)c1c(O)c(=O)c(C(=O)NCc3c(F)cc(F)cc3F)cn12` [Example 58, (3S,3′S,7′S)-12′-hydroxy-3′-methyl-1′,5,11′-trioxo-N-(2,4,6-trifluorobenzyl)-1′,4′,5′,11′-tetrahydro-3′H,7′H-spiro[pyrrolidine-3,6′-[2,7]methanopyrido[1,2-a][1,4]diazonine]-10′-carboxamide]: the concentration for a half-maximal effect (EC50) with HIV-1 (IIIB) (setting [1]) amounted to 77.4 nM. In “in vitro”, the CC50 at 5 days is at least 50 µM.

Consider `C[C@H]1CC[C@@]2(CNC(=O)O2)[C@H]2CN1C(=O)c1c(O)c(=O)c(C(=O)NCc3c(F)cc(F)cc3F)cn12` [Example 59, (3′S,5R,7′R)-12′-hydroxy-3′-methyl-1′,2,11′-trioxo-N-(2,4,6-trifluorobenzyl)-1′,4′,5′,11′-tetrahydro-3′H,7′H-spiro[oxazolidine-5,6′-[2,7]methanopyrido[1,2-a][1,4]diazonine]-10′-carboxamide], for which the EC50 in the series with HIV-1 (IIIB) (setting [1]) stood at 51.4 nM. Besides, the CC50 at 5 days in “in vitro” was at least 50 µM.

With `CC1=NOC2(CC[C@H](C)N3C[C@H]2n2cc(C(=O)NCc4ccc(F)cc4F)c(=O)c(O)c2C3=O)N1N(C)C` (stereo partly drawn) [Example 95, (3′S,7′R)—N-(2,4-difluorobenzyl)-4-(dimethylamino)-12′-hydroxy-3,3′-dimethyl-1′,11′-dioxo-1′,4′,5′,11′-tetrahydro-3′H,4H,7′H-spiro[[1,2,4]oxadiazole-5,6′-[2,7]methanopyrido[1,2-a][1,4]diazonine]-10′-carboxamide], the EC50 in the series on HIV-1 (IIIB) came to 0.6 nM. This compound returned a CC50 in “in vitro” of 24.1 µM.

On to `C[C@H]1OC[C@]2(CC[C@H](C)N3C[C@H]2n2cc(C(=O)NCc4c(F)cc(F)cc4F)c(=O)c(O)c2C3=O)O1` [Example 132, (2S,3′S,4R,7′R)-12′-hydroxy-2,3′-dimethyl-1′,11′-dioxo-N-(2,4,6-trifluorobenzyl)-1′,4′,5′,11′-tetrahydro-3′H,7′H-spiro[[1,3]dioxolane-4,6′-[2,7]methanopyrido[1,2-a][1,4]diazonine]-10′-carboxamide], for which the EC50 in the series on HIV-1 (IIIB) (setting [1]) came out at 1.4 nM. The compound also came in with a CC50 at 5 days in the series “in vitro” of 30.3 µM.

As for `CC1=NO[C@@]2(CC[C@H](C)N3C[C@H]2n2cc(C(=O)NCc4c(F)cc(F)cc4F)c(=O)c(O)c2C3=O)S1` [Example 146, (3′S,5S,7′R)-12′-hydroxy-3,3′-dimethyl-1′,11′-dioxo-N-(2,4,6-trifluorobenzyl)-1′,4′,5′,11′-tetrahydro-3′H,7′H-spiro[[1,4,2]oxathiazole-5,6′-[2,7]methanopyrido[1,2-a][1,4]diazonine]-10′-carboxamide], the EC50 in the series on HIV-1 (IIIB) came out at 1.3 nM. The CC50 in “in vitro” amounted to 16.9 µM.

On to `CC1=NO[C@@]2(CC[C@H](C)N3C[C@H]2n2cc(C(=O)NCc4ncc(F)c(Cl)c4F)c(=O)c(O)c2C3=O)C1` [Example 150, (3′S,5S,7′R)—N-((4-chloro-3,5-difluoropyridin-2-yl)methyl)-12′-hydroxy-3,3′-dimethyl-1′,11′-dioxo-1′,4′,5′,11′-tetrahydro-3′H,4H,7′H-spiro[isoxazole-5,6′-[2,7]methanopyrido[1,2-a][1,4]diazonine]-10′-carboxamide], for which the EC50 with HIV-1 (IIIB) worked out at 2.1 nM. In addition, in the series “in vitro”, the CC50 at 5 days amounted to 27 µM.

In the case of `CC1=NO[C@@]2(CC[C@H](C)N3C[C@H]2n2cc(-c4nnc(Cc5c(F)cc(F)cc5F)s4)c(=O)c(O)c2C3=O)C1` [Example 152, (3′S,5S,7′R)-12′-hydroxy-3,3′-dimethyl-10′-(5-(2,4,6-trifluorobenzyl)-1,3,4-thiadiazol-2-yl)-4′,5′-dihydro-3′H,4H,7′H-spiro[isoxazole-5,6′-[2,7]methanopyrido[1,2-a][1,4]diazonine]-1′,11′-dione], the EC50 with HIV-1 (IIIB) was determined as 4.2 nM. Further, the CC50 at 5 days in “in vitro” was 14.2 µM.

As for `CCn1c(CN2O[C@@]3(CC[C@H](C)N4C[C@H]3n3cc(C(=O)NCc5c(F)cc(F)cc5F)c(=O)c(O)c3C4=O)CC2=O)nc2ccccc21` [Example 164, (3′S,5S,7′R)-2-((1-ethyl-1H-benzo[d]imidazol-2-yl)methyl)-12′-hydroxy-3′-methyl-1′,3,11′-trioxo-N-(2,4,6-trifluorobenzyl)-1′,4′,5′,11′-tetrahydro-3′H,7′H-spiro[isoxazolidine-5,6′-[2,7]methanopyrido[1,2-a][1,4]diazonine]-10′-carboxamide], in the series with HIV-1 (IIIB) (setting [1]), the EC50 turned out to be 3 nM. For the same compound, the CC50 at 5 days in “in vitro” was found to be 45.7 µM.

Source of the values: patent US20250115620A1, “BRIDGED TRICYCLIC CARBAMOYLPYRIDONE COMPOUNDS AND USES THEREOF” (Gilead Sciences, Inc., priority 2022, published 2025).
